# According to patent US10227344B2, “CK2 inhibitors, compositions and methods thereof” (Polaris Pharmaceuticals, Inc., priority 2016, dated 2019):
# How the values were obtained:
# Assay type in all cases: cell-based
# MDA-MB-231 = assay: Cancer cell panel, cell viability (resazurin): Breast, MDA-MB-231; settings: MDA-MB-231 (Breast), 72 hours; labelled drug combined with Example 3
# Protocol: (§1) Cells were plated in 96-well plates and treated for 72 hours with a serially diluted CK2 inhibitor or anti-cancer drug or their combination. The suspension cell lines were treated right after plating, while the adherent cells were allowed to attach overnight prior to the start of the treatment.
# (§2) Cell viability was determined by adding resazurin to cell cultures and measuring fluorescence with a plate reader. Relative cell viability was calculated by dividing the cell viability signal from a test sample by that of a non-treated control. […] Bliss Independence and Highest Single Agent models were used to determine if there is synergy, additivity or antagonism between the CK2 inhibitor and an anti-cancer drug.
# SK-MEL-24 = assay: Cancer cell panel, cell viability (resazurin): Melanoma, SK-MEL-24; settings: SK-MEL-24 (Melanoma), 72 hours; labelled drug combined with Example 3
# Protocol: as §1, §2
# HT29 = assay: Cancer cell panel, cell viability (resazurin): Colon, HT29; settings: 72 hours, labelled drug combined with Example 3
# SkBr-3 = assay: Cancer cell panel, cell viability (resazurin): Breast, SkBr-3; settings: SkBr-3 (Breast), 72 hours; labelled drug combined with Example 3
# SK-MEL-3 = assay: Cancer cell panel, cell viability (resazurin): Melanoma, SK-MEL-3; settings: SK-MEL-3 (Melanoma), 72 hours; labelled drug combined with Example 3
# Protocol: as §1, §2
# H2122 = assay: Cancer cell panel, cell viability (resazurin): NSCLC, H2122; settings: 72 hours, labelled drug combined with Example 3
# Protocol: as §1, §2
# T47D = assay: Cancer cell panel, cell viability (resazurin): Breast, T47D; settings: 72 hours, labelled drug combined with Example 3
# A549 = assay: Cancer cell panel, cell viability (resazurin): NSCLC, A549; settings: 72 hours, labelled drug combined with Example 3
# H1975 = assay: Cancer cell panel, cell viability (resazurin): NSCLC, H1975; settings: 72 hours, labelled drug combined with Example 3
# Protocol: as §1, §2
# ZR-75-1 = assay: Cancer cell panel, cell viability (resazurin): Breast, ZR-75-1; settings: ZR-75-1 (Breast), 72 hours; labelled drug combined with Example 3
# H460 = assay: Cancer cell panel, cell viability (resazurin): NSCLC, H460; settings: 72 hours, labelled drug combined with Example 3
# K562 = assay: Cancer cell panel, cell viability (resazurin): Leukemia, K562; settings: 72 hours, labelled drug combined with Example 3
# H23 = assay: Cancer cell panel, cell viability (resazurin): NSCLC, H23; settings: 72 hours, labelled drug combined with Example 3
# Raji = assay: Cancer cell panel, cell viability (resazurin): Burkitt's Lymphoma, Raji; settings: 72 hours, labelled drug combined with Example 3
# EOL-1 = assay: Cancer cell panel, cell viability (resazurin): Leukemia, EOL-1; settings: EOL-1 (Leukemia), 72 hours; labelled drug combined with Example 3
# Protocol: as §1, §2
# DLD-1 = assay: Cancer cell panel, cell viability (resazurin): Colon, DLD-1; settings: DLD-1 (Colon), 72 hours; labelled drug combined with Example 3
# LoVo = assay: Cancer cell panel, cell viability (resazurin): Colon, LoVo; settings: 72 hours, labelled drug combined with Example 3
# MDA-MB-157 = assay: Cancer cell panel, cell viability (resazurin): Breast, MDA-MB-157; settings: MDA-MB-157 (Breast), 72 hours; labelled drug combined with Example 3
# BxPC3 = assay: Cancer cell panel, cell viability (resazurin): Pancreatic, BxPC3; settings: 72 hours, labelled drug combined with Example 3
# Protocol: as §1, §2
# A375 = assay: Cancer cell panel, cell viability (resazurin): Melanoma, A375; settings: 72 hours, labelled drug combined with Example 3
# WM-115 = assay: Cancer cell panel, cell viability (resazurin): Melanoma, WM-115; settings: WM-115 (Melanoma), 72 hours; labelled drug combined with Example 3
# BT-20 = assay: Cancer cell panel, cell viability (resazurin): Breast, BT-20; settings: BT-20 (Breast), 72 hours; labelled drug combined with Example 3
# Protocol: as §1, §2
# OVCAR-3 = assay: Cancer cell panel, cell viability (resazurin): Ovarian, OVCAR-3; settings: OVCAR-3 (Ovarian), 72 hours; labelled drug combined with Example 3
# Protocol: as §1, §2
# SKOV-3 = assay: Cancer cell panel, cell viability (resazurin): Ovarian, SKOV-3; settings: SKOV-3 (Ovarian), 72 hours; labelled drug combined with Example 3
# Protocol: as §1, §2
# HL60 = assay: Cancer cell panel, cell viability (resazurin): Leukemia, HL60; settings: 72 hours, labelled drug combined with Example 3
# MDA-MB-453 = assay: Cancer cell panel, cell viability (resazurin): Breast, MDA-MB-453; settings: MDA-MB-453 (Breast), 72 hours; labelled drug combined with Example 3
# Caov-3 = assay: Cancer cell panel, cell viability (resazurin): Ovarian, Caov-3; settings: Caov-3 (Ovarian), 72 hours; labelled drug combined with Example 3
# HCT116 = assay: Cancer cell panel, cell viability (resazurin): Colon, HCT116; settings: 72 hours, labelled drug combined with Example 3
# BT-474 = assay: Cancer cell panel, cell viability (resazurin): Breast, BT-474; settings: BT-474 (Breast), 72 hours; labelled drug combined with Example 3
# Daudi = assay: Cancer cell panel, cell viability (resazurin): Burkitt's Lymphoma, Daudi; settings: 72 hours, labelled drug combined with Example 3
# RPMI8226 = assay: Cancer cell panel, cell viability (resazurin): multiple myeloma, RPMI8226; settings: 72 hours, labelled drug combined with Example 3
# Protocol: as §1, §2
# H1299 = assay: Cancer cell panel, cell viability (resazurin): NSCLC, H1299; settings: 72 hours, labelled drug combined with Example 3
# Colo205 = assay: Cancer cell panel, cell viability (resazurin): Colon, Colo205; settings: 72 hours, labelled drug combined with Example 3
compound,measurement,setting,value
"CC(=O)O[C@H]1C(=O)[C@@]2(C)[C@H]([C@H](OC(=O)c3ccccc3)[C@]3(O)C[C@H](OC(=O)[C@H](O)[C@@H](NC(=O)c4ccccc4)c4ccccc4)C(C)=C1C3(C)C)[C@]1(OC(C)=O)CO[C@@H]1C[C@@H]2O [Paclitaxel, paclitaxel]","synergy, additivity or antagonism of the combination of Example 3 with the anti-cancer drug",MDA-MB-231,+ (Additive relative to each agent alone (CI = 0.9-1 by Bliss Independence Model and <0.9 by Highest Single Agent Model))
same,"synergy, additivity or antagonism of the combination of Example 3 with the anti-cancer drug",SK-MEL-24,+ (Additive relative to each agent alone (CI = 0.9-1 by Bliss Independence Model and <0.9 by Highest Single Agent Model))
same,"synergy, additivity or antagonism of the combination of Example 3 with the anti-cancer drug",HT29,+ (Additive relative to each agent alone (CI = 0.9-1 by Bliss Independence Model and <0.9 by Highest Single Agent Model))
same,"synergy, additivity or antagonism of the combination of Example 3 with the anti-cancer drug",SkBr-3,+ (Additive relative to each agent alone (CI = 0.9-1 by Bliss Independence Model and <0.9 by Highest Single Agent Model))
same,"synergy, additivity or antagonism of the combination of Example 3 with the anti-cancer drug",SK-MEL-3,+ (Additive relative to each agent alone (CI = 0.9-1 by Bliss Independence Model and <0.9 by Highest Single Agent Model))
same,"synergy, additivity or antagonism of the combination of Example 3 with the anti-cancer drug",H2122,+ (Additive relative to each agent alone (CI = 0.9-1 by Bliss Independence Model and <0.9 by Highest Single Agent Model))
same,"synergy, additivity or antagonism of the combination of Example 3 with the anti-cancer drug",T47D,+ (Additive relative to each agent alone (CI = 0.9-1 by Bliss Independence Model and <0.9 by Highest Single Agent Model))
same,"synergy, additivity or antagonism of the combination of Example 3 with the anti-cancer drug",A549,+ (Additive relative to each agent alone (CI = 0.9-1 by Bliss Independence Model and <0.9 by Highest Single Agent Model))
same,"synergy, additivity or antagonism of the combination of Example 3 with the anti-cancer drug",H1975,+ (Additive relative to each agent alone (CI = 0.9-1 by Bliss Independence Model and <0.9 by Highest Single Agent Model))
same,"synergy, additivity or antagonism of the combination of Example 3 with the anti-cancer drug",ZR-75-1,+ (Additive relative to each agent alone (CI = 0.9-1 by Bliss Independence Model and <0.9 by Highest Single Agent Model))
same,"synergy, additivity or antagonism of the combination of Example 3 with the anti-cancer drug",H460,+ + (Slight synergy relative to each agent alone (CI = 0.75-0.9 by Bliss Independence Model))
same,"synergy, additivity or antagonism of the combination of Example 3 with the anti-cancer drug",K562,+ (Additive relative to each agent alone (CI = 0.9-1 by Bliss Independence Model and <0.9 by Highest Single Agent Model))
same,"synergy, additivity or antagonism of the combination of Example 3 with the anti-cancer drug",H23,+ + (Slight synergy relative to each agent alone (CI = 0.75-0.9 by Bliss Independence Model))
same,"synergy, additivity or antagonism of the combination of Example 3 with the anti-cancer drug",Raji,+ + (Slight synergy relative to each agent alone (CI = 0.75-0.9 by Bliss Independence Model))
same,"synergy, additivity or antagonism of the combination of Example 3 with the anti-cancer drug",EOL-1,+ (Additive relative to each agent alone (CI = 0.9-1 by Bliss Independence Model and <0.9 by Highest Single Agent Model))
same,"synergy, additivity or antagonism of the combination of Example 3 with the anti-cancer drug",DLD-1,+ + + (Synergy relative to each agent alone (CI = 0.4-0.74 by Bliss Independence Model))
same,"synergy, additivity or antagonism of the combination of Example 3 with the anti-cancer drug",LoVo,+ (Additive relative to each agent alone (CI = 0.9-1 by Bliss Independence Model and <0.9 by Highest Single Agent Model))
same,"synergy, additivity or antagonism of the combination of Example 3 with the anti-cancer drug",MDA-MB-157,+ (Additive relative to each agent alone (CI = 0.9-1 by Bliss Independence Model and <0.9 by Highest Single Agent Model))
same,"synergy, additivity or antagonism of the combination of Example 3 with the anti-cancer drug",BxPC3,+ + (Slight synergy relative to each agent alone (CI = 0.75-0.9 by Bliss Independence Model))
same,"synergy, additivity or antagonism of the combination of Example 3 with the anti-cancer drug",A375,+ (Additive relative to each agent alone (CI = 0.9-1 by Bliss Independence Model and <0.9 by Highest Single Agent Model))
same,"synergy, additivity or antagonism of the combination of Example 3 with the anti-cancer drug",WM-115,+ (Additive relative to each agent alone (CI = 0.9-1 by Bliss Independence Model and <0.9 by Highest Single Agent Model))
same,"synergy, additivity or antagonism of the combination of Example 3 with the anti-cancer drug",BT-20,+ + (Slight synergy relative to each agent alone (CI = 0.75-0.9 by Bliss Independence Model))
same,"synergy, additivity or antagonism of the combination of Example 3 with the anti-cancer drug",OVCAR-3,+ (Additive relative to each agent alone (CI = 0.9-1 by Bliss Independence Model and <0.9 by Highest Single Agent Model))
same,"synergy, additivity or antagonism of the combination of Example 3 with the anti-cancer drug",SKOV-3,+ (Additive relative to each agent alone (CI = 0.9-1 by Bliss Independence Model and <0.9 by Highest Single Agent Model))
same,"synergy, additivity or antagonism of the combination of Example 3 with the anti-cancer drug",HL60,+ + (Slight synergy relative to each agent alone (CI = 0.75-0.9 by Bliss Independence Model))
same,"synergy, additivity or antagonism of the combination of Example 3 with the anti-cancer drug",MDA-MB-453,+ (Additive relative to each agent alone (CI = 0.9-1 by Bliss Independence Model and <0.9 by Highest Single Agent Model))
same,"synergy, additivity or antagonism of the combination of Example 3 with the anti-cancer drug",Caov-3,+ (Additive relative to each agent alone (CI = 0.9-1 by Bliss Independence Model and <0.9 by Highest Single Agent Model))
same,"synergy, additivity or antagonism of the combination of Example 3 with the anti-cancer drug",HCT116,+ (Additive relative to each agent alone (CI = 0.9-1 by Bliss Independence Model and <0.9 by Highest Single Agent Model))
same,"synergy, additivity or antagonism of the combination of Example 3 with the anti-cancer drug",BT-474,+ (Additive relative to each agent alone (CI = 0.9-1 by Bliss Independence Model and <0.9 by Highest Single Agent Model))
same,"synergy, additivity or antagonism of the combination of Example 3 with the anti-cancer drug",Daudi,+ (Additive relative to each agent alone (CI = 0.9-1 by Bliss Independence Model and <0.9 by Highest Single Agent Model))
same,"synergy, additivity or antagonism of the combination of Example 3 with the anti-cancer drug",RPMI8226,+ (Additive relative to each agent alone (CI = 0.9-1 by Bliss Independence Model and <0.9 by Highest Single Agent Model))
same,"synergy, additivity or antagonism of the combination of Example 3 with the anti-cancer drug",H1299,+ (Additive relative to each agent alone (CI = 0.9-1 by Bliss Independence Model and <0.9 by Highest Single Agent Model))
same,"synergy, additivity or antagonism of the combination of Example 3 with the anti-cancer drug",Colo205,+ + + (Synergy relative to each agent alone (CI = 0.4-0.74 by Bliss Independence Model))
